Laboratory results reported in patent publication US20240417410A1, “TRICYCLIC COMPOUNDS FOR THE TREATMENT OF CANCER” (Hoffmann-La Roche Inc., priority 2023, published 2024).
Read-outs that look alike come from different tables or passages of the source.

Experiments:
Test in all cases: Cell proliferation, CTG 3D, 7 d
Type in all cases: cell-based
[1] = tested on: PANC-1; conditions: Homo sapiens; PANC-1, KRAS (G12D)
Experimental: (§1) On Day-1, cells were plated in 384-well round-bottom ultra-low adhesion plates (cat. Corning 3830, with cell density adjusted according to Table 3. The assay plate was then centrifuged at 1000 rpm for 1 minute to ensure even distribution of cells. The plate was incubated at 37° C. in a 5% CO2 atmosphere (It is worth noting that for SW1271 cell plate, it needs to be incubated in an incubator without additional CO2).
(§2) On Day 0, Example 24 or A122 was added to each well using a Tecan HP D300E dispenser, with a 3-fold dilution across 9 doses. The final concentration of DMSO was normalized to 0.2%. The assay plate was then centrifuged at 1000 rpm for 1 minute and incubated for 7 days.
(§3) On Day 7, CellTiter-Glo (CTG) 3D reagent (Promega G9683) was dispensed into each well of a 384-well plate using a multi-drop dispenser (Thermo Scientific 66413). A liquid handling automation workstation (Bravo with a 384-well head) was used to mix the CTG reagents. Plates were left on a shaker for 30 minutes at 450 rpm, shielded from light.
(§4) For data analysis, the XL-fit software (Supplier: ID Business Solutions Ltd., Software version: XL fit 5.0) was utilized. The percentage of inhibition was calculated using the formula: Inhibition %=(Max-Sample value)/(Max-Min)×100. Curve fitting was performed as follows: For complete dose-response curves, the relative IC50 was reported from the fit. For incomplete curves, if minimal inhibition was greater than 50%, an IC50 less than the lowest compound concentration was reported. If minimal inhibition was between 20% and 50%, the bottom was locked at 0% and the IC50 was reported. If maximal inhibition was less than 50%, an IC50 greater than the highest compound concentration was reported.

[2] = tested on: Mino; conditions: Homo sapiens
Experimental: as §1, §2, §3, §4

[3] = tested on: A549; conditions: Homo sapiens
Experimental: as §1, §2, §3, §4

[4] = tested on: KMS26; conditions: Homo sapiens, KMS-26; KMS26, KRAS (WT ampl)
Experimental: as §1, §2, §3, §4

[5] = tested on: PK-59; conditions: Homo sapiens; PK-59, KRAS (G12D)
Experimental: as §1, §2, §3, §4

[6] = tested on: GP5d; conditions: Homo sapiens, KRAS (G12D)
Experimental: as §1, §2, §3, §4

[7] = tested on: TYK-nu; conditions: Homo sapiens
Experimental: as §1, §2, §3, §4

[8] = tested on: NCI-H441; conditions: Homo sapiens; NCI-H441, KRAS (G12V)
Experimental: as §1, §2, §3, §4

[9] = tested on: Panc 02.13; conditions: Homo sapiens
Experimental: as §1, §2, §3, §4

[10] = tested on: MKN-1; conditions: Homo sapiens; MKN-1, KRAS (WT ampl)
Experimental: as §1, §2, §3, §4

[11] = tested on: RCM-1; conditions: Homo sapiens; RCM-1, KRAS (G12V)
Experimental: as §1, §2, §3, §4

[12] = tested on: Capan-2; conditions: Homo sapiens
Experimental: as §1, §2, §3, §4

[13] = tested on: RERF-LC-Ad1; conditions: Homo sapiens
Experimental: as §1, §2, §3, §4

[14] = tested on: ONS-76; conditions: Homo sapiens
Experimental: as §1, §2, §3, §4

[15] = tested on: Toledo; conditions: Homo sapiens
Experimental: as §1, §2, §3, §4

[16] = tested on: TT; conditions: Homo sapiens, KRAS (WT ampl)
Experimental: as §1, §2, §3, §4

[17] = tested on: HT1080; conditions: Homo sapiens, HT-1080
Experimental: as §1, §2, §3, §4

[18] = tested on: T84; conditions: Homo sapiens
Experimental: as §1, §2, §3, §4

[19] = tested on: SW 1990; conditions: Homo sapiens, SW1990; SW 1990, KRAS (G12D)
Experimental: as §1, §2, §3, §4

[20] = tested on: SW 1088; conditions: Homo sapiens, SW1088
Experimental: as §1, §2, §3, §4

[21] = tested on: SW1271; conditions: Homo sapiens
Experimental: as §1, §2, §3, §4

[22] = tested on: NCI-H1734; conditions: Homo sapiens
Experimental: as §1, §2, §3, §4

[23] = tested on: CHP-212; conditions: Homo sapiens
Experimental: as §1, §2, §3, §4

[24] = tested on: TOV-21G; conditions: Homo sapiens, TOV21G
Experimental: as §1, §2, §3, §4

[25] = tested on: HuT 78; conditions: Homo sapiens, HuT78
Experimental: as §1, §2, §3, §4

[26] = tested on: PL-21; conditions: Homo sapiens
Experimental: as §1, §2, §3, §4

[27] = tested on: KURAMOCHI; conditions: Homo sapiens, KRAS (WT ampl)
Experimental: as §1, §2, §3, §4

[28] = tested on: AsPc-1; conditions: Homo sapiens, ASPC1; AsPc-1, KRAS (G12D)
Experimental: as §1, §2, §3, §4

For `CO[C@@H](C)c1ncc(N2CCN(C)CC2)cc1-c1c2c3cc(cc4c3n1CCC4)-c1csc(n1)C[C@H](NC(=O)[C@H]1[C@H](C)[C@@H]1C)C(=O)N1CCC[C@H](N1)C(=O)OCC(C)(C)C2` (atropisomer, axis not shown; (M)) [Example 24, (1r,2R,3S)-N-[(7S,13S)-(20M)-20-[2-[(1S)-1-methoxyethyl]-5-(4-methylpiperazin-1-yl)-3-pyridyl]-17,17-dimethyl-8,14-dioxo-15-oxa-4-thia-9,21,30,31-tetrazahexacyclo[23.3.1.1^2,5.1^9,13.0^19,27.0^21,26]hentriaconta-1 (28),2,5 (31), 19,25 (29),26-hexaen-7-yl]-2,3-dimethyl-cyclopropanecarboxamide], the IC50 [1] was 0.95 nM, the IC50 ([2]; Mino, NRAS (p.G13D), read-out: IC50) was 3.8 nM and the IC50 ([3]; A549, KRAS (G12S), read-out: IC50) was 0.72 nM. It also gave an IC50 [4] of 50 nM, an IC50 [5] of 0.44 nM and an IC50 [6] of 0.48 nM. The IC50 ([7]; TYK-nu, NRAS (p.G12D and p.Q61K), read-out: IC50) was 0.34 nM, the IC50 [8] was 0.25 nM and the IC50 ([9]; Panc 02.13, KRAS (Q61R), read-out: IC50) was 4 nM. It also gave an IC50 [10] of 28 nM, an IC50 [11] of 2.2 nM and an IC50 ([12]; Capan-2) of 0.23 nM. It also gave an IC50 ([13]; RERF-LC-Ad1, KRAS (G12A), read-out: IC50) of 0.3 nM, an IC50 ([14]; ONS-76, NRAS (p.Q61R), read-out: IC50) of 0.9 nM and an IC50 ([15]; KRAS (G13D), read-out: IC50) of 100 nM. The IC50 [16] was 2.9 nM, the IC50 ([17]; HT1080, NRAS (p.Q61K), read-out: IC50) was 0.36 nM and the IC50 ([18]; T84, KRAS (G13D), read-out: IC50) was 100 nM. For the same compound, the IC50 [19] was 1.6 nM, the IC50 ([20]; SW 1088, NRAS (p.Q61K), read-out: IC50) was 0.75 nM and the IC50 ([21]; SW1271, NRAS (p.Q61R), read-out: IC50) was 1.7 nM. For the same compound, the IC50 ([22]; NCI-H1734, KRAS (G13C), read-out: IC50) was 0.74 nM, the IC50 ([23]; CHP-212, NRAS (p.Q61K), read-out: IC50) was 0.35 nM and the IC50 ([24]; TOV-21G, KRAS (G13C), read-out: IC50) was 4.9 nM. For the same compound, the IC50 ([25]; HuT 78, NRAS (p.Q61K), read-out: IC50) was 0.3 nM, the IC50 ([26]; PL-21, KRAS (A146V), read-out: IC50) was 1 nM and the IC50 [27] was 100 nM. It also gave an IC50 [28] of 0.65 nM.
`CCn1c(-c2cc(N3CCN(C)CC3)cnc2[C@H](C)OC)c2c3cc(ccc31)-c1csc(n1)C[C@H](NC(=O)[C@H]1C[C@@H]1C)C(=O)N1CCC[C@H](N1)C(=O)OCC(C)(C)O2` [Example A122, reference compound] showed an IC50 [1] of 0.68 nM, an IC50 ([2]; MINO) of 1000 nM and an IC50 ([3]; A549) of 1.1 nM. The IC50 [4] was 48 nM, the IC50 [5] was 0.62 nM and the IC50 [6] was 0.41 nM. The IC50 [7] was 0.68 nM, the IC50 [8] was 0.49 nM and the IC50 [9] was 15 nM. It also gave an IC50 [10] of 40 nM, an IC50 [11] of 6.5 nM and an IC50 ([12]; Capan-2, KRAS (G12V), read-out: IC50) of 0.59 nM. It also gave an IC50 [13] of 0.22 nM, an IC50 ([14]; ONS-76) of 2.1 nM and an IC50 [15] of 100 nM. It also gave an IC50 [16] of 5.9 nM, an IC50 [17] of 0.49 nM and an IC50 ([18]; T84) of 100 nM. It also gave an IC50 [19] of 1.5 nM, an IC50 [20] of 2.6 nM and an IC50 ([21]; SW1271) of 3 nM. The IC50 ([22]; NCI-H1734) was 1.3 nM, the IC50 ([23]; CHP-212) was 1.1 nM and the IC50 [24] was 33 nM. It also gave an IC50 [25] of 0.55 nM, an IC50 ([26]; PL-21) of 2.1 nM and an IC50 [27] of 100 nM. It also gave an IC50 [28] of 0.55 nM.
